The target of this assay is T1, TLR4 (Homo sapiens, UniProt O00206+Q9Y6Y9).
T1 construct: endogenous in cells; host or cells: HUVEC
As to the kind of experiment: TLR signaling assay: IL-6 release (ELISA) from LPS-stimulated HUVEC cells pretreated with Lipid IVA or analogs. It is filed as cell-based. The note with it: 1 hour pretreatment, then 100 ng/mL LPS, supernatant 18 hours after LPS, mean ± SD of triplicate wells (LPS only: 425 ± 7). The procedure: Antagonistic Effect of Unsaturated Lipid IVA. To examine the antagonistic effect of the Lipid IVA analogues produced by our reconstituted system, products from sample 1-3 were assayed against LPS stimulated HUVEC microphage cell line. IL-6 level was measured as an indicator of TLR4 suppression. As a negative control, an in vitro reaction lacking acetyl-CoA was run and processed in parallel. Lipid IVA samples was quantified via mass spectrometry by comparing with a standard curve generated from synthetic Lipid IVA standard. […]
TLR Signaling Assays. HUVECs were grown to approximately 80% confluency in plastic 48-well cell culture plates. Six hours prior to the beginning the assay, medium was aspirated and replaced with 200 μL fresh medium per well. 100× stock dilutions of LPS (in sterile water) and Lipid IVa (in methanol) were freshly prepared from lyophilized solids. Cells were subjected to a 1-hour preincubation with the indicated amounts of Lipid IVa, or Samples 1, 2, or 3, and then LPS (100 ng/mL) was added. Aliquots of the culture supernatant were taken after 18 hours, frozen at −20 C, and then analyzed for IL-6 using a commercial ELISA kit following the manufacturer's (eBioSciences) recommended protocol.
On the technique in general: ELISA stands for enzyme-linked immunosorbent assay.

These results are taken from patent US10407454B2, “Defined enzymatic synthesis of lipid A analogs” (The Board of Trustees of the Leland Stanford Junior …, priority 2016, dated 2019).

T1 sequence (O00206 24-839): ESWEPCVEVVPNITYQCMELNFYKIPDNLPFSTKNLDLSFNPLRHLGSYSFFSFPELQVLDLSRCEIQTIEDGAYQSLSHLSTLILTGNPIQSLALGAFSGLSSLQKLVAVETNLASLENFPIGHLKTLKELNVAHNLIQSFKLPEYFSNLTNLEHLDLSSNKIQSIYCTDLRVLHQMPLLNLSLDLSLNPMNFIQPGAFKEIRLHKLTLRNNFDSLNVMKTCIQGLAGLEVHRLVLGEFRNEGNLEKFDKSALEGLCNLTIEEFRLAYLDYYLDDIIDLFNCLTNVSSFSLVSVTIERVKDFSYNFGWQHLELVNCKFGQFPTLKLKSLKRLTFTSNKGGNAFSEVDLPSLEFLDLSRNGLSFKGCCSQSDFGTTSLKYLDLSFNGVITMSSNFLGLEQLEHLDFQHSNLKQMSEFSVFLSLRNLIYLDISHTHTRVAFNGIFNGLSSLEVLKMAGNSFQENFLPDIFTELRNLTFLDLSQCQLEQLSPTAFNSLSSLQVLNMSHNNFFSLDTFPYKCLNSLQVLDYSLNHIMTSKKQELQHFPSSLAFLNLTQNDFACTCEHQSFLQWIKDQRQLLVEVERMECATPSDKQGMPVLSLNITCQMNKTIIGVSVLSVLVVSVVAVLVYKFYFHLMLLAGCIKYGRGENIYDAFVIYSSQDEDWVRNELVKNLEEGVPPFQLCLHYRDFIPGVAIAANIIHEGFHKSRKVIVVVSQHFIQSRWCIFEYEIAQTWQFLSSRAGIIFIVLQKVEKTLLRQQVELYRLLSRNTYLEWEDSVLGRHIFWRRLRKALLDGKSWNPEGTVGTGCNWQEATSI
T1 sequence (Q9Y6Y9 19-160): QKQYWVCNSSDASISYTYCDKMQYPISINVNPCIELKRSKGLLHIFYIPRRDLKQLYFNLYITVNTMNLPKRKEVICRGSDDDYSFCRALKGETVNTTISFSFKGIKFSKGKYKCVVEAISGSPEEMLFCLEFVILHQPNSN

As to `CCCCCCCCCCC[C@@H](O)CC(=O)N[C@H]1[C@H](OC[C@H]2O[C@H](OP(=O)(O)O)[C@H](NC(=O)C[C@H](O)CCCCCCCCCCC)[C@@H](OC(=O)C[C@H](O)CCCCCCCCCCC)[C@@H]2O)O[C@H](CO)[C@@H](OP(=O)(O)O)[C@@H]1OC(=O)C[C@H](O)CCCCCCCCCCC` [Lipid IVA], the “[IL-6] (pg/mL) in HUVEC culture supernatant” value (“[IL-6] (pg/mL)” for short) (10 ng/mL compound) was determined as 484 ± 25 pg/mL, the “[IL-6] (pg/mL)” value (100 ng/mL compound) was 212 ± 33 pg/mL and the “[IL-6] (pg/mL)” value (500 ng/mL compound) was 57 ± 3 pg/mL.
